This is an account of results in patent EP1222194B1, “7-ACYLAMINO-3-HETEROARYLTHIO-3-CEPHEM CARBOXYLIC ACID ANTIBIOTICS AND PRODRUGS THEREOF” (priority 1999, dated 2001).

Broadly, the MIC is the smallest concentration in the dilution series that meets the test's criterion for growth inhibition.

≈ marks a conversion by molar mass, not a printed value.

For one test, the system named is E. faecium A491 (Amp^R). The experiment in a line: Broth microdilution MIC (NCCLS). It counts as cell-based. The conditions noted are these: Enterococcus faecium, Mueller-Hinton Broth, 24 h at 35 °C. In a few lines:
(§1)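 MHB; inoculum 5 x 10^5 CFU/mL final (early-log, 1 h regrowth after overnight culture, then 1:1000); 2-fold serial dilutions; 24 h, 35 °C; A650 plus visual read; MIC = lowest concentration with no growth.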
On the technique in general: Broth dilution looks for growth in wells or tubes with falling amounts of substance.

Another test deals with E. faecium ATCC 35667. Description: Broth microdilution MIC (NCCLS). It counts as cell-based. As to conditions: Enterococcus faecium, ATCC35667, Mueller-Hinton Broth, 24 h at 35 °C. In a few lines:
as §1

A further test concerns E. faecalis ATCC 29212. The experiment in a line: Broth microdilution MIC (NCCLS). It counts as cell-based. As to conditions: Enterococcus faecalis, ATCC29212, Mueller-Hinton Broth, 24 h at 35 °C. In a few lines: as §1
For a further test, the system named is S. aureus ATCC 29213. Description: Broth microdilution MIC (NCCLS). Format: cell-based. The conditions noted are these: Staphylococcus aureus, ATCC29213, Mueller-Hinton Broth, 24 h at 35 °C. In short, it runs like this: as §1
The test system of test [1] is S. aureus Col8A(Meth^S)(lac^-). Description: Broth microdilution MIC (NCCLS). It counts as cell-based. As to conditions: Staphylococcus aureus, Mueller-Hinton Broth, 24 h at 35 °C. In short, it runs like this:
as §1

In test [2] the test system is S. aureus PC1 (Meth^S)(lac^+). Description: Broth microdilution MIC (NCCLS). Format: cell-based. The conditions noted are these: Staphylococcus aureus; S. aureus PC1 (Meth^S)(lac^+); Mueller-Hinton Broth, 24 h at 35 °C; read-out: MIC. In short, it runs like this:
as §1

The test system of test [3] is S. aureus ATCC 13709 (Smith diffuse). Description: Murine model for lethal bacteremic peritonitis (septicemia). Format: in vivo, mice. As to conditions: Dose 5 mg/kg, subcutaneously at 0 and 2 hrs post-challenge. As to the method:
10 mice/group were injected intraperitoneally with 2.98x10^7 cfu S. aureus ATCC 13709 (Smith diffuse) and treated at 0 and 2hrs post-challenge with serial two-fold doses of new cephalosporin antibiotic, imipenem and vancomycin subcutaneously in order to determine the ED50. Male Swiss-Webster mice weighing originally 24.2 - 26.1 g were obtained from Charles Rivers Labs, Hollister, CA. Mice were housed 10 per cage and given free access to water and mouse chow.
Staphylococcus aureus ATCC 13709 (Smith diffuse) was grown overnight at 37 °C in Brain-heart Infusion broth (BHIB). The following morning, it was subcultured to fresh BHIB and incubated for 4-5h at 37 °C. The log-phase growth cells were washed once with physiological saline and adjusted to the desired concentration by correlation of absorbency at OD 600 nm with predetermined plate counts (NCCLS, 1994). The cell suspension was mixed with an equal volume of sterile 14% hog-gastric mucin (2). Inoculum was kept in an ice bath until used (<1h).
Mice were challenged via an injection of 0.5 mL bacterial suspension intraperitoneally. The bacterial challenge was 2.98 x 10^7 cfu/mouse.
Imipenem (Primaxin IV; Lot 7294A), vancomycin (Vancocin; Lot 8MU60W), and new cephalosporin antibiotic were prepared by serial two-fold dilutions to concentrations of 0.078 - 0.005 mg/mL, 1.2 - 0.075 mg/mL, 0.3 - 0.02 mg/mL, 0.3 - 0.02 mg/mL and 0.3 - 0.02 mg/mL respectively in sterile water (1). All antibiotics were administered subcutaneously in 0.1 mL volumes at 0 and 2 hours post-challenge. Concentrations of all compounds are based on the weight of the bioactive ingredients.
The 50% effective dose (ED50) was calculated by the probit method (3) utilizing a program entitled Probit (Nycomed-Salutar).

Regarding `NCCSCc1ncccc1SC1=C(C(=O)O)N2C(=O)[C@@H](NC(=O)/C(=N\O)c3nsc(N)n3)[C@H]2SC1` [Cmpd 2, (7R)-7-[(Z)-2-(5-amino-1,2,4-thiadiazol-3-yl)-2-(hydroxyimino)acetamido]-3-[2-(2-aminoethylthiomethyl)pyrid-3-ylthio]-3-cephem-4-carboxylic acid], the MIC against E. faecium A491 (Amp^R) was over 32 µg/mL; in the test with E. faecium ATCC 35667, 1 µg/mL (≈ 1.76 µM); against E. faecalis ATCC 29212 it was 1 µg/mL (≈ 1.76 µM).

With `NCCSCc1ncccc1SC1=C(C(=O)O)N2C(=O)[C@@H](NC(=O)/C(=N\O)c3nc(N)sc3Cl)[C@H]2SC1` [Cmpd 1, (7R)-7-[(Z)-2-(2-amino-5-chlorothiazol-4-yl)-2-(hydroxyimino)acetamido]-3-[2-(2-aminoethylthiomethyl)pyrid-3-ylthio]-3-cephem-4-carboxylic acid], the minimum inhibitory concentration (MIC) against E. faecium A491 (Amp^R) came out at 8 µg/mL (≈ 13.3 µM); in the test on E. faecium ATCC 35667, 0.5 µg/mL (≈ 0.83 µM); with E. faecalis ATCC 29212 it was 0.06 µg/mL (≈ 0.0996 µM).

On to `N=C(N)NCCSCc1ncccc1SC1=C(C(=O)O)N2C(=O)[C@@H](NC(=O)/C(=N\O)c3nc(N)sc3Cl)[C@H]2SC1` [Cmpd 2-S, (7R)-7-[(Z)-2-(2-amino-5-chlorothiazol-4-yl)-2-(hydroxyimino)acetamido]-3-[2-(2-guanidinoethylthiomethyl)pyrid-3-ylthio]-3-cephem-4-carboxylic acid], for which the minimum inhibitory concentration (MIC) in the test with E. faecium A491 (Amp^R) is 4 µg/mL (≈ 6.21 µM); in the test with S. aureus ATCC 29213, 0.13 µg/mL (≈ 0.202 µM); in test [1] it was 0.125 µg/mL (≈ 0.194 µM); with E. faecium ATCC 35667, 0.25 µg/mL (≈ 0.388 µM); against E. faecalis ATCC 29212, 0.06 µg/mL (≈ 0.0931 µM); in test [2], 0.13 µg/mL (≈ 0.202 µM).

As for `NCCSCc1ccncc1SC1=C(C(=O)O)N2C(=O)[C@@H](NC(=O)/C(=N\O)c3nc(N)sc3Cl)[C@H]2SC1` [Cmpd 3, (7R)-7-[(Z)-2-(2-amino-5-chlorothiazol-4-yl)-2-(hydroxyimino)acetamido]-3-[4-(2-aminoethylthiomethyl)pyrid-3-ylthio]-3-cephem-4-carboxylic acid], the MIC against E. faecium A491 (Amp^R) is 32 µg/mL (≈ 53.1 µM); against S. aureus ATCC 29213, 0.13 µg/mL (≈ 0.216 µM); against E. faecium ATCC 35667 it was 1 µg/mL (≈ 1.66 µM); in the test on E. faecalis ATCC 29212, 0.13 µg/mL (≈ 0.216 µM). The “Efficacy in murine septicemia %survival” value in test [3] is 5/80%.

As for `N=C(N)NCCSCc1ncccc1SC1=C(C(=O)O)N2C(=O)[C@@H](NC(=O)/C(=N\O)c3nsc(N)n3)[C@H]2SC1` [Cmpd 2-R, (7R)-7-[(Z)-2-(5-amino-1,2,4-thiadiazol-3-yl)-2-(hydroxyimino)acetamido]-3-[2-(2-guanidinoethylthiomethyl)pyrid-3-ylthio]-3-cephem-4-carboxylic acid], the MIC was determined as 32 µg/mL (≈ 52.4 µM) against E. faecium A491 (Amp^R); 0.13 µg/mL (≈ 0.213 µM) against S. aureus ATCC 29213; 0.25 µg/mL (≈ 0.409 µM) in test [1]; 0.5 µg/mL (≈ 0.819 µM) in the test with E. faecium ATCC 35667; 1 µg/mL (≈ 1.64 µM) against E. faecalis ATCC 29212; 0.13 µg/mL (≈ 0.213 µM) in test [2].
